{
  "source": "patent US20220177968A1",
  "about": "“METHODS FOR DETECTING OR REDUCING THE INCIDENCE OF ADVERSE DRUG REACTIONS” (CHANG GUNG MEMORIAL HOSPITAL, LINKOU, priority 2019, published 2022)",
  "key": {"[1]": {"system": "European descent patients with CBZ-induced SJS/TEN", "test": "HLA-A/B allele association with CBZ-induced SJS/TEN (case-control, sequence-based HLA typing)", "assay_type": "in vivo, human", "settings": "for OR (95% CI) / Odds ratio (95% CI): CBZ-SJS/TEN cases vs European general population; for SJS/TEN N (%), allele carriers among cases / SCAR case N (%), allele carriers among cases: CBZ-SJS/TEN patients of European descent", "description": "(§1) A total of 28 patients of European descent with CBZ-SJS/TEN were enrolled in this study. SJS/TEN is characterized by a rapidly developing exanthema of purpuric macules and target-like lesions with skin detachment accompanied by hemorrhagic-erosive mucosal involvement. Skin detachment in SJS patients affects less than 10% of body surface area (BSA), while TEN patients have skin detachment greater than 30% of BSA. Detachment of 10-30% is defined as SJS/TEN-overlap, reflecting a continuum of severity variants of one disease entity. Patients with CBZ-DRESS were also enrolled for comparison. HLA-A and HLA-B genotypes of patients with CBZ-SJS/TEN were determined by SeCore HLA sequence-based typing (Invitrogen, Life Technologies, USA). Furthermore, the HLA genotypes for patients with CBZ-DRESS and general population (the control group) were also determined. Statistical analyses were performed using SPSS 21.0 (IBM, Armonk, N.Y.). Comparisons of genotype frequencies between groups were performed using Fisher exact tests. Differences were considered statistically significant at p-values of less than 0.05."}, "[2]": {"system": "patients with CBZ-DRESS, European descent", "test": "HLA allele association with CBZ-induced DRESS (case-control, HLA typing)", "assay_type": "in vivo, human", "settings": "for Odds ratio (95% CI): CBZ-DRESS cases vs European general population; for SCAR case N (%), allele carriers among cases: CBZ-DRESS patients", "description": "as §1"}},
  "note": "Several values for one entry are separate records, joined by “and”; a condition that tells them apart may be missing. Equal entries are not always repeated.",
  "data": [
    {"smiles": "NC(=O)N1c2ccccc2C=Cc2ccccc21", "note": "[CBZ, Carbamazepine]", "values": [
      {"measurement": "OR (95% CI)", "setting": "[1]; HLA-A*01:01", "result": "2.2 (1.1-4.7)"},
      {"measurement": "SJS/TEN N (%), allele carriers among cases", "setting": "[1]; HLA-A*01:01", "result": "14/28 (50.0%)"},
      {"measurement": "OR (95% CI)", "setting": "[1]; HLA-A*02:01", "result": "0.5 (0.2-1.0)"},
      {"measurement": "SJS/TEN N (%), allele carriers among cases", "setting": "[1]; HLA-A*02:01", "result": "11/28 (39.29%)"},
      {"measurement": "OR (95% CI)", "setting": "[1]; HLA-A*24:02", "result": "0.6 (0.2-1.8)"},
      {"measurement": "SJS/TEN N (%), allele carriers among cases", "setting": "[1]; HLA-A*24:02", "result": "3/28 (10.71%)"},
      {"measurement": "OR (95% CI)", "setting": "[1]; HLA-A*26:01", "result": "3.5 (1.3-9.0)"},
      {"measurement": "SJS/TEN N (%), allele carriers among cases", "setting": "[1]; HLA-A*26:01", "result": "5/28 (17.86%)"},
      {"measurement": "OR (95% CI)", "setting": "[1]; HLA-A*31:01", "result": "3.5 (1.2-10.2) and 3.6 (1.2-10.3)"},
      {"measurement": "Sensitivity (%)", "setting": "[1]; HLA-A*31:01 as marker of CBZ-SJS/TEN", "result": 14.29, "unit": "%"},
      {"measurement": "OR (95% CI)", "setting": "[1]; HLA-B*08:01", "result": "1.5 (0.7-3.5)"},
      {"measurement": "SJS/TEN N (%), allele carriers among cases", "setting": "[1]; HLA-B*08:01", "result": "8/28 (28.57%)"},
      {"measurement": "OR (95% CI)", "setting": "[1]; HLA-B*13:02", "result": "1.8 (0.5-6.0)"},
      {"measurement": "SJS/TEN N (%), allele carriers among cases", "setting": "[1]; HLA-B*13:02", "result": "3/28 (10.71%)"},
      {"measurement": "OR (95% CI)", "setting": "[1]; HLA-B*15:02", "result": "44.4 (2.2-879.5)"},
      {"measurement": "SJS/TEN N (%), allele carriers among cases", "setting": "[1]; HLA-B*15:02", "result": "0/28 (0%)"},
      {"measurement": "OR (95% CI)", "setting": "[1]; HLA-B*18:01", "result": "1.1 (0.3-3.8)"},
      {"measurement": "SJS/TEN N (%), allele carriers among cases", "setting": "[1]; HLA-B*18:01", "result": "3/28 (10.71%)"},
      {"measurement": "Sensitivity (%)", "setting": "[1]; HLA-B*38:01 as marker of CBZ-SJS/TEN", "result": 14.29, "unit": "%"},
      {"measurement": "OR (95% CI)", "setting": "[1]; HLA-B*44:02", "result": "0.2 (0.0-1.4)"},
      {"measurement": "SJS/TEN N (%), allele carriers among cases", "setting": "[1]; HLA-B*44:02", "result": "1/28 (3.57%)"},
      {"measurement": "OR (95% CI)", "setting": "[1]; HLA-B*44:03", "result": "1.9 (0.6-5.4)"},
      {"measurement": "SJS/TEN N (%), allele carriers among cases", "setting": "[1]; HLA-B*44:03", "result": "4/28 (14.29%)"},
      {"measurement": "Odds ratio (95% CI)", "setting": "[1]; HLA-B*57:01/A*31:01/B*38:01", "result": "9.3 (4.4-19.9)"},
      {"measurement": "SCAR case N (%), allele carriers among cases", "setting": "[1]; HLA-B*57:01/A*31:01/B*38:01", "result": "(60.71%)"},
      {"measurement": "Sensitivity (%)", "setting": "[1]; HLA-B*57:01/A*31:01/B*38:01 as marker of CBZ-SJS/TEN", "result": 60.71, "unit": "%"},
      {"measurement": "Odds ratio (95% CI)", "setting": "[1]; HLA-B*57:01/A*31:01", "result": "8.0 (3.8-16.7)"},
      {"measurement": "SCAR case N (%), allele carriers among cases", "setting": "[1]; HLA-B*57:01/A*31:01", "result": "(50.00%)"},
      {"measurement": "Sensitivity (%)", "setting": "[1]; HLA-B*57:01/A*31:01 as marker of CBZ-SJS/TEN", "result": 50.00, "unit": "%"},
      {"measurement": "Odds ratio (95% CI)", "setting": "[1]; HLA-B*57:01/B*38:01", "result": "8.6 (4.1-18.1)"},
      {"measurement": "SCAR case N (%), allele carriers among cases", "setting": "[1]; HLA-B*57:01/B*38:01", "result": "(50.00%)"},
      {"measurement": "Sensitivity (%)", "setting": "[1]; HLA-B*57:01/B*38:01 as marker of CBZ-SJS/TEN", "result": 50.00, "unit": "%"},
      {"measurement": "Sensitivity (%)", "setting": "[1]; HLA-B*57:01 as marker of CBZ-SJS/TEN", "result": 39.29, "unit": "%"},
      {"measurement": "Odds ratio (95% CI)", "setting": "[2]; HLA-A*31:01", "result": "49.9 (12.9-193.6)"},
      {"measurement": "Sensitivity (%)", "setting": "[2]; HLA-A*31:01 as marker of CBZ-DRESS", "result": 70.00, "unit": "%"},
      {"measurement": "Odds ratio (95% CI)", "setting": "[2]; HLA-B*38:01", "result": "1.2 (0.1-21.0)"},
      {"measurement": "SCAR case N (%), allele carriers among cases", "setting": "[2]; HLA-B*38:01", "result": "(0%)"},
      {"measurement": "Sensitivity (%)", "setting": "[2]; HLA-B*38:01 as marker of CBZ-DRESS", "result": 0, "unit": "%"},
      {"measurement": "Odds ratio (95% CI)", "setting": "[2]; HLA-B*57:01/A*31:01/B*38:01", "result": "14.1 (3.6-54.5)"},
      {"measurement": "SCAR case N (%), allele carriers among cases", "setting": "[2]; HLA-B*57:01/A*31:01/B*38:01", "result": "(70.00%)"},
      {"measurement": "Sensitivity (%)", "setting": "[2]; HLA-B*57:01/A*31:01/B*38:01 as marker of CBZ-DRESS", "result": 70.00, "unit": "%"},
      {"measurement": "Odds ratio (95% CI)", "setting": "[2]; HLA-B*57:01/A*31:01", "result": "18.6 (4.8-71.9)"},
      {"measurement": "SCAR case N (%), allele carriers among cases", "setting": "[2]; HLA-B*57:01/A*31:01", "result": "(70.00%)"},
      {"measurement": "Sensitivity (%)", "setting": "[2]; HLA-B*57:01/A*31:01 as marker of CBZ-DRESS", "result": 70.00, "unit": "%"},
      {"measurement": "Odds ratio (95% CI)", "setting": "[2]; HLA-B*57:01/B*38:01", "result": "0.4 (0-7.0)"},
      {"measurement": "SCAR case N (%), allele carriers among cases", "setting": "[2]; HLA-B*57:01/B*38:01", "result": "(0%)"},
      {"measurement": "Sensitivity (%)", "setting": "[2]; HLA-B*57:01/B*38:01 as marker of CBZ-DRESS", "result": 0, "unit": "%"},
      {"measurement": "Odds ratio (95% CI)", "setting": "[2]; HLA-B*57:01", "result": "0.7 (0.0-11.3)"},
      {"measurement": "SCAR case N (%), allele carriers among cases", "setting": "[2]; HLA-B*57:01", "result": "(0%)"},
      {"measurement": "Sensitivity (%)", "setting": "[2]; HLA-B*57:01 as marker of CBZ-DRESS", "result": 0, "unit": "%"}
    ]}
  ]
}
